Measurements as given in the NIST ThermoML archive (doi:10.1016/j.tca.2013.08.031).
Several values for one entry are separate records, joined by “and”; a condition that tells them apart may be missing. Equal entries are not always repeated. Numbers after ± are expanded uncertainties.

Test: molar heat capacity at constant volume
Conditions: Fluid (supercritical or subcritical phases), Vacuum adiabatic calorimetry

CCC(C)O (stereo not drawn) [butan-2-ol]
Conditions	molar heat capacity at constant volume
375.31 K, Mass density=735.98 kg/m3	219.47 ± 2.2 J/K/mol
375.53 K, Mass density=735.98 kg/m3	217.99 ± 2.2 J/K/mol
375.75 K, Mass density=735.98 kg/m3	218.29 ± 2.2 J/K/mol
375.97 K, Mass density=735.98 kg/m3	219.25 ± 2.2 J/K/mol
376.19 K, Mass density=735.98 kg/m3	217.99 ± 2.2 J/K/mol
376.42 K, Mass density=735.98 kg/m3	219.47 ± 2.2 J/K/mol
376.64 K, Mass density=735.98 kg/m3	218.29 ± 2.2 J/K/mol
376.86 K, Mass density=735.98 kg/m3	219.47 ± 2.2 J/K/mol
377.08 K, Mass density=735.98 kg/m3	217.77 ± 2.2 J/K/mol
377.3 K, Mass density=735.98 kg/m3	219.55 ± 2.2 J/K/mol
377.52 K, Mass density=735.98 kg/m3	219.33 ± 2.2 J/K/mol
407.02 K, Mass density=683.53 kg/m3	273.88 ± 2.7 J/K/mol
407.23 K, Mass density=683.53 kg/m3	278.47 ± 2.8 J/K/mol
407.44 K, Mass density=683.53 kg/m3	275.51 ± 2.7 J/K/mol
407.65 K, Mass density=683.53 kg/m3	274.18 ± 2.7 J/K/mol
407.86 K, Mass density=683.53 kg/m3	273.95 ± 2.8 J/K/mol
408.07 K, Mass density=683.53 kg/m3	279.22 ± 2.8 J/K/mol
408.28 K, Mass density=683.53 kg/m3	277.29 ± 2.8 J/K/mol
408.49 K, Mass density=683.53 kg/m3	260.39 ± 2.7 J/K/mol
408.7 K, Mass density=683.53 kg/m3	246.01 ± 2.5 J/K/mol
408.91 K, Mass density=683.53 kg/m3	240.23 ± 2.5 J/K/mol
409.12 K, Mass density=683.53 kg/m3	236.6 ± 2.4 J/K/mol
409.33 K, Mass density=683.53 kg/m3	234.08 ± 2.4 J/K/mol
409.54 K, Mass density=683.53 kg/m3	232.22 ± 2.4 J/K/mol
409.75 K, Mass density=683.53 kg/m3	224.59 ± 2.3 J/K/mol
409.96 K, Mass density=683.53 kg/m3	223.4 ± 2.3 J/K/mol
410.17 K, Mass density=683.53 kg/m3	224.22 ± 2.3 J/K/mol
410.38 K, Mass density=683.53 kg/m3	222.66 ± 2.2 J/K/mol
413.11 K, Mass density=648.53 kg/m3	272.62 ± 2.7 J/K/mol
413.31 K, Mass density=648.53 kg/m3	273.21 ± 2.7 J/K/mol
413.52 K, Mass density=648.53 kg/m3	273.66 ± 2.7 J/K/mol
413.73 K, Mass density=648.53 kg/m3	273.51 ± 2.7 J/K/mol
413.94 K, Mass density=648.53 kg/m3	272.62 ± 2.7 J/K/mol
414.15 K, Mass density=648.53 kg/m3	272.84 ± 2.7 J/K/mol
414.78 K, Mass density=683.53 kg/m3	226.66 ± 2.3 J/K/mol
414.99 K, Mass density=683.53 kg/m3	226.89 ± 2.3 J/K/mol
415.19 K, Mass density=683.53 kg/m3	227.55 ± 2.3 J/K/mol and 227.85 ± 2.3 J/K/mol
419.77 K, Mass density=683.53 kg/m3	228.67 ± 2.3 J/K/mol
419.97 K, Mass density=683.53 kg/m3	227.55 ± 2.3 J/K/mol
420.6 K, Mass density=683.53 kg/m3	230.59 ± 2.3 J/K/mol
421.42 K, Mass density=683.53 kg/m3	231.85 ± 2.4 J/K/mol
421.63 K, Mass density=683.53 kg/m3	230 ± 2.3 J/K/mol
422.25 K, Mass density=683.53 kg/m3	230.81 ± 2.3 J/K/mol
422.46 K, Mass density=683.53 kg/m3	231.11 ± 2.3 J/K/mol
422.66 K, Mass density=683.53 kg/m3	231.85 ± 2.4 J/K/mol
422.87 K, Mass density=683.53 kg/m3	231.33 ± 2.3 J/K/mol
423.08 K, Mass density=683.53 kg/m3	231.41 ± 2.3 J/K/mol
423.28 K, Mass density=683.53 kg/m3	230.81 ± 2.3 J/K/mol
423.49 K, Mass density=683.53 kg/m3	231.48 ± 2.4 J/K/mol
423.69 K, Mass density=683.53 kg/m3	231.93 ± 2.4 J/K/mol
424.31 K, Mass density=683.53 kg/m3	231.11 ± 2.3 J/K/mol
424.52 K, Mass density=683.53 kg/m3	230.52 ± 2.3 J/K/mol
424.72 K, Mass density=683.53 kg/m3	230.81 ± 2.3 J/K/mol
